Patent publication US20210032806A1, “ANTIMICROBIAL FABRIC TREATMENT” (The Procter & Gamble Company, priority 2019, published 2021)
Values after ≈ are worked out from the molar mass of the structure shown.

How the values were obtained:
Format in all cases: cell-based
[1] = tested on: Staphylococcus aureus (S. aureus—ATCC #6538); assay: Minimum Biocidal Concentration (MBC) in suspension, S. aureus; conditions: 6 minutes contact time, 5% horse serum soil load
Experimental: (§1) The antimicrobial efficacy of the antimicrobial agent in the aqueous liquor is determined by measuring its Minimum Biocidal Concentration (MBC). The MBC is defined as the lowest absolute concentration of the particular antimicrobial active which provides complete kill (zero bacterial growth). The MBC of the bispyridinium alkane antimicrobial active is determined against the bacterium, Staphylococcus aureus (S. aureus—ATCC #6538), a gram positive bacterium, and against Escherichia coli (E. coli ATCC #8739) these microorganisms are representative of natural contaminants in many consumer and industrial applications. The bacteria inoculum is prepared by transferring several colonies from a Tryptone Soy Agar (TSA) plate to a saline solution (0.85% NaCl) comprising 5% of horse serum as additional soil load, the bacteria concentration in this saline solution is determined by measuring the % Transmittance at 425 nm and adjusted by either adding more bacteria or more saline solution until the % Transmittance at 425 nm is between 23-25% for S. aureus and 31-33% for E. coli. These % Transmittance values correspond to a bacteria concentration of 10^8 CFU/ml.
(§2) The antimicrobial agent was added to the aqueous liquor to be used in the method of the present invention at a level of 200 ppm, or 100 ppm or 50 ppm. 200 μL of the antimicrobial aqueous liquor was dosed into one well of row A of a 96 well microtiter plate. Each subsequent well (rows B to G) were dosed with 100 μL of the same aqueous liquor, without the addition of the antimicrobial agent. 100 μL of the antimicrobial aqueous liquor was transferred from row A to row B and mixed. 100 μL of the antimicrobial aqueous liquor was then transferred from row B to row C and mixed, and the process repeated to row G. As such, the concentration of the antimicrobial agent underwent two-fold dilution in adjacent wells, while the concentration of any adjunct present in the aqueous liquor remained constant across all the wells in the same column.
10 μL of the 10^8 CFU/ml bacteria suspension in saline was added to wells A to F of the microtiter plate with row G kept as a nil bacteria control. The final volume in each well was 110 μL, except for row G which comprised 100 μL of the hard surface cleaning composition and no bacteria suspension. Bacterial inoculation to each column was staggered by 30 seconds to allow for equal incubation times in all wells so that the contact time between the bacteria and the antimicrobial active for all samples was 6 mins. After this contact time, 10 μL of each test solution was transferred to 90 μL of neutraliser solution (Modified Letheen Broth+1.5% Polysorbate 80, supplied by BioMérieux) to stop the antimicrobial action of the antimicrobial active matching the stagger of the inoculation. 2 μL of this solution was plated onto a TSA plate matching the stagger of the inoculation so that all samples are exposed to the neutralizer for the same period of time. The plate is incubated at 32.5° C. for 24-48 h for S. aureus, and 24 h for E. coli. MBC concentration is taken as the lowest concentration of the antimicrobial active at which no visible colony growth is observed on the TSA plate.
(§3) The antibacterial efficacy of the bispyridinium alkane octenidine hydrochloride was compared to that of N-(3-aminopropyl)-N-dodecylpropane-1,3-diamine (Lonzabac 12.30-Lonza) and n-alkyl dimethyl benzyl ammonium chloride/n-alkyl dimethyl ethylbenzyl ammonium chloride (BTC2125-Stepan) in different aqueous liquors. The minimal biocidal concentration (MBC) in suspension of each antibacterial active against a gram positive bacterium (Staphylococcus aureus) and a gram negative bacterium (Escherichia coli) was determined after 6 minutes contact time.

[2] = tested on: Escherichia coli (E. coli ATCC #8739); assay: Minimum Biocidal Concentration (MBC) in suspension, E. coli; conditions: 6 minutes contact time, 5% horse serum soil load; for MBC: Escherichia coli, ATCC8739, 0.1 h
Experimental: as §1, §2
10 μL of the 10^8 CFU/ml bacteria suspension in saline was added to wells A to F of the microtiter plate with row G kept as a nil bacteria control. […]
as §3

[3] = tested on: Staphylococcus aureus (S. aureus—ATCC #6538); assay: Antibacterial efficacy on cotton fabrics; conditions: cotton fabric, 625 ppm active in liquor with 3750 ppm C12-C14 EO7, 1 h contact; for Number of bacteria recovered from treated fabrics: nil AB reference 9.1 × 10^5 CFU/ml
Experimental: The bactericidal efficacy on fabric surfaces of treatments with antimicrobial aqueous liquors comprising different antimicrobial agents was determined against the bacterium Staphylococcus aureus (S. aureus—ATCC #6538). The bacteria inoculum was prepared by transferring several colonies from a Tryptone Soy Agar (TSA) plate to a saline solution (0.85% NaCl) comprising 5% horse serum as additional soil load, the bacteria concentration in this saline solution was determined by measuring the % Transmittance at 425 nm and adjusted by either adding more bacteria or more saline solution until the % Transmittance at 425 nm is between 23-25% which corresponds to a bacteria concentration of 10^8 CFU/ml.
Fabric carriers, 1 cm×1 cm disks of cotton sterilized by autoclaving, were inoculated with 30 μL of the 10^8 CFU/ml bacteria inoculum and incubated for 20 mins at 32° C. After this incubation period, 3 fabric carriers were placed within bundles of 10 clean sterile cotton disks and secured by placing a sterile 30 mm paperclip to the edge of the bundle. The fabric bundles were placed in 30 ml of antimicrobial aqueous liquors to be used in the method of the present invention comprising 3750 ppm of C12-C14 EO7 alkyl ethoxylate non ionic surfactant and 625 ppm of either bispyridinium alkane (octenidine dihydrochloride), N-(3-aminopropyl)-N-dodecylpropane-1,3-diamine (Lonzabac 12.30) or benzalkonium chloride (Sigma-Aldrich CAS number 63449-41-2) as antimicrobial actives. The contact time between the bacteria in the fabric carriers and the antimicrobial aqueous liquor was 1 h. After this contact time, each fabric bundle was rinsed for 5 minutes with water and the 3 fabric carries transferred to 9 ml of neutralizer solution (Modified Letheen Broth+1.5% Polysorbate 80, supplied by BioMérieux) to stop the antimicrobial action of the antimicrobial active. The neutralizer tube containing the fabric carriers was vortexed in a Genie 2 vortexer set at speed 7 for 30 seconds. Ten-fold dilutions of the neutralizer+fabric carrier solution were prepared by transferring 1 ml of the neutralizer solution to 9 ml of neutralizer solution, this solution was further diluted in neutralizer solution following the same protocol so that serial ten-fold dilutions were obtained. 100 μL of each of the serial dilutions were plated on a TSA plate, plates were incubated at 32° C. for 18 hours, after this incubation time, the number of colonies in each plate was counted. The target dilution used to determine the bactericidal efficacy of aqueous liquor of the method of the present invention was the one delivering 30-300 CFU in the plate, the data reported for each antimicrobial active is the average of the bacteria number in three plates multiplied by the target dilution. The log reduction for each antibacterial treatment vs nil antibacterial active reference is the log 10 of the number obtained by dividing the number of colonies recovered from the fabrics treated with the nil antibacterial reference aqueous liquor by the number of colonies recovered from the fabrics treated with aqueous liquors comprising the different antimicrobial actives.
Cotton fabrics inoculated with bacteria were treated for 1 hour with aqueous liquors comprising 3750 ppm of C12-C14 EO7 alkyl ethoxylate non ionic surfactant and either no antibacterial active (ref) or 625 ppm of octenidine hydrochloride, 625 ppm of Lonzabac 12.30 or 625 ppm of benzalkonium chloride as antibacterial actives. After the treatment, the bacteria remaining on the treated fabrics were extracted and quantified. It can be seen that the treatment done with the aqueous liquor comprising octenidine hydrochloride provides better antibacterial efficacy, i.e. less bacteria remaining on fabrics, and higher log reduction, than the treatments done with aqueous liquors comprising either Lonzabac or benzalkonium chloride.

[4] = aqueous liquor 2: Octyliminodipropionate (Ampholak YJH 40) 0.1%
[5] = aqueous liquor 3: C12-C14 EO7 alcohol ethoxylate 0.1%
[6] = aqueous liquor 5: Sodium lauroamphohydroxypropylsulfonate (Miranol JS) 0.0062%
[7] = aqueous liquor 7: Octyliminodipropionate (Ampholak YJH 40) 0.0062%
[8] = aqueous liquor 8: C12-C14 EO7 alcohol ethoxylate 0.0062%

| Molecule | MBC ([1]; Staphylococcus aureus, ATCC6538, 0.1 h, aqueous liquor 1: deionized water) | MBC S. aureus [1, 4] | MBC S. aureus [1, 5] | MBC S. aureus ([1]; aqueous liquor 4: Disodium capryloamphodiacetate (Mackam 2CY75) 0.025%) | MBC S. aureus [1, 6] | MBC [2, 7] | MBC [2, 8] | Log reduction vs treatment with nil AB active reference [3] | Number of bacteria recovered from treated fabrics [3] | MBC S. aureus ([1]; aqueous liquor 1: deionized water) | MBC E. coli [2, 7] | MBC E. coli [2, 8] |
| --- | --- | --- | --- | --- | --- | --- | --- | --- | --- | --- | --- | --- |
| CCCCCCCCCCCCN(CCCN)CCCN [Lonzabac 12.30, N-(3-aminopropyl)-N-dodecylpropane-1,3-diamine] | 25 µg/mL (≈ 83.5 µM) | 25 ppm | 25 ppm | 25 ppm | 25 ppm | 50 µg/mL (≈ 167 µM) | 25 µg/mL (≈ 83.5 µM) | Log 0.7 | 1.9 × 10^5 CFU/ml |  |  |  |
| CCCCCCCCN=c1ccn(CCCCCCCCCCn2ccc(=NCCCCCCCC)cc2)cc1.Cl.Cl [Octenidine, octenidine dihydrochloride] |  | 3.125 ppm | 6.25 ppm |  | 3.125 ppm |  |  | Log 2.5 | 2.8 × 10^3 CFU/ml | 3.125 ppm | 3.125 ppm | 6.25 ppm |
| benzalkonium chloride |  |  |  |  |  |  |  | Log 1.2 | 5.8 × 10^4 CFU/ml |  |  |  |
